Measurements: patent publication US20250074911A1, “MACROCYCLIC BTK INHIBITORS” (Crossfire Oncology Holding B.V., priority 2021, published 2025)
Where two headings read alike, the source gives them in different places.

Legend:
[1] = target: full-length wt-BTK enzyme (Homo sapiens (Human), UniProt Q06187); assay: Biochemical kinase assay wt-BTK (IMAP)
Method in brief: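 Compound and enzyme (final 1.2 nM) were pre-incubated for 1 h at RT, after which the reaction was started with 4 μM ATP plus 50 nM fluorescein-MBP substrate peptide. After 2 h in the dark, the IMAP progressive binding reagent stopped the reaction, and phosphorylation was read by fluorescence polarization.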

[2] = target: full-length BTK C481S enzyme (Homo sapiens (Human), UniProt Q06187, C481S); assay: Biochemical kinase assay BTK C481S (IMAP)
full-length BTK C481S enzyme, sequence (Q06187 whole entry C481S): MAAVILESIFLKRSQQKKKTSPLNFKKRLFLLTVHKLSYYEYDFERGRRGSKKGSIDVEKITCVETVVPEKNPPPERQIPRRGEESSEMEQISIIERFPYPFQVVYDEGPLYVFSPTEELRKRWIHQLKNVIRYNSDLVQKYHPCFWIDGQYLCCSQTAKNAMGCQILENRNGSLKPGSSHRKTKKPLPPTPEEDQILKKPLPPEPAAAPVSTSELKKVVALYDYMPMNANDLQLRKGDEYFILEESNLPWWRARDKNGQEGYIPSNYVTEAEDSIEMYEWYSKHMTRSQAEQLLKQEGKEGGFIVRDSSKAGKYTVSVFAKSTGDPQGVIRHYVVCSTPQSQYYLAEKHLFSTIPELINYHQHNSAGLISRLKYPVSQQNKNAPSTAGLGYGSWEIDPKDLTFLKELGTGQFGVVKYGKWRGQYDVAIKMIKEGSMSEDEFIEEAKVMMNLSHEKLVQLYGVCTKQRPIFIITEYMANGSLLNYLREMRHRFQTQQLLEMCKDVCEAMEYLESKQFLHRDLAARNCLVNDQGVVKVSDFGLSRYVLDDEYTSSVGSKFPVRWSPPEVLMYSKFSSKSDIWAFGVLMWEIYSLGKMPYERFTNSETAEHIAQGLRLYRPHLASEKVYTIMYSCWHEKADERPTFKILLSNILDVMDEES
Method in brief: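 IC50 values come from IMAP fluorescence polarization after quenching with progressive binding solution. The reaction ran 2 h at room temperature in the dark with 1.2 nM full-length C481S enzyme, 7 μM ATP and 50 nM fluorescein-labelled MBP-derived peptide, following a 1 h dark pre-incubation of compound with enzyme.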

[3] = test system: wt-REC-1 mantle cell lymphoma cells; assay: Cell proliferation assay wt-REC-1 (ATPlite, 72 hours); assay type: cell-based; conditions: read-out: IC50 wt-REC-1
Method in brief: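 Luminescent viability read over 72 h, start-of-incubation signal recorded separately to separate growth from cell death. Percentage growth referenced to compound-free 0.3% DMSO wells; IC50 from 4-parameter logistic fit.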

[4] = test system: REC-1 T474I cell lines; assay: Cell proliferation assay REC-1 BTK T474I knock-in cells (ATPlite, 72 hours); assay type: cell-based; conditions: Homo sapiens, Rec1; 72 hours; read-out: IC50 REC-1 T474I
Method in brief: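 REC-1 cells carrying CRISPR knock-in mutant BTK, single-cell cloned and sequence-confirmed, were exposed to compound for 72 h and read by ATPlite luminescence. Percentage growth was calculated against the signal at the start of incubation and against untreated 0.3% DMSO wells as maximum growth.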

[5] = target: wt-BTK (Homo sapiens (Human), UniProt Q06187); assay: Binding kinetics measurements (Surface Plasmon Resonance) on wt-BTK; conditions: target residence time, SPR
wt-BTK, sequence (Q06187 whole entry): as the sequence (Q06187 whole entry C481S) above, with S481C counted along it
Description: (§1) Binding kinetics measurements on wt-BTK, BTK […], BTK […], BTK […] and BTK […] (Surface Plasmon Resonance) Streptavidin-coated chips (Cat. No. BR100531), disposables and maintenance kits for Biacore were purchased from Cytiva (Eindhoven, The Netherlands). […] Remaining streptavidin was blocked with biocytin. Immobilization was performed at 4° C. Subsequent assay steps were conducted at 22° C. After changing buffer to Biacore buffer with 1% (v/v) dimethylsulfoxide (DMSO), a pre-run was performed for a period of at least 30 min at a flow rate of 30 μl/min to obtain a stable surface. The kinetic constants of the compounds were determined with single cycle kinetics with five consecutive injections with an increasing compound concentration with ranges of 3.16-316 nM. […] To circumvent problems of mass transport limitation, a flow rate of 30 μl/min was used. A blank run with the same conditions was performed before the compound was injected. The SPR sensorgrams were analyzed with Biacore Evaluation Software by using a method of double referencing. First the reference channel was subtracted from the channel containing immobilized protein. Subsequently, the reference curve obtained with buffer injections was subtracted. […] Compounds that bound according to an induced fit model were fitted with a two-state reaction model. The kinetic constants (ka, […], KD) of duplicates were geometrically averaged. […] Target residence for an induced fit model was calculated as described (Tummino and Copeland, 2008).

[6] = target: BTK T474I (Homo sapiens (Human), UniProt Q06187, T474I); assay: Binding kinetics measurements (Surface Plasmon Resonance) on BTK T474I; conditions: target residence time, SPR
BTK T474I, sequence (Q06187 whole entry T474I): as the sequence (Q06187 whole entry C481S) above, with T474I, S481C counted along it
Description: as §1

[7] = test system: wt-TMD8 diffuse large B-cell lymphoma cells; assay: Cell proliferation assay wt-TMD8 (ATPlite, 120 hours); assay type: cell-based; conditions: B-cell; wt-TMD8 cells, 120 hours, ATPlite; read-out: IC50 wt-TMD8
Method in brief: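 Readout is percentage growth from ATPlite 1Step luminescence after 5 days (120 h) compound treatment of wt-TMD8 lymphoma cells (1600/well, RPMI-1640 + 10% FBS). Time-zero signal separates growth inhibition from cell kill; 0.3% DMSO wells without compound define maximal growth.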

full-length wt-BTK enzyme, sequence (Q06187 whole entry): as the sequence (Q06187 whole entry C481S) above, with S481C counted along it

IC50 [1]	IC50 [2]	IC50 ([3]; 72 h)	Tau (h) wt-BTK (Act) [5]	Tau (h) BTK T474I (Act) [6]	IC50 [7]	IC50 ([3]; 72 hours)	SMILES	IC50 [4]
< 5 nM	< 5 nM	< 100 nM	5.31 h	0.60 h	< 100 nM		Nc1ncc2n3c(nc(-c4ccc(C(=O)Nc5cc(C(F)F)ccn5)cc4)c13)[C@@H]1CC[C@H](C1)NC(=O)CCOCC/C=C/2 [Example 222]	100 to 500 nM
< 5 nM	< 5 nM	< 100 nM	3.59 h	1.19 h			Nc1ncc2c3c1c(-c1ccc(C(=O)Nc4cc(C(F)(F)F)ccn4)cc1)nn3[C@@H]1CN[C@H](C1)C(=O)NCCCCC/C=C/2 [Example 225]	500 to 10000 nM
< 5 nM	< 5 nM	< 100 nM	2.52 h		< 100 nM		Nc1ncc2n3c(nc(-c4ccc(C(=O)Nc5cc(C6CC6)ccn5)cc4)c13)[C@@H]1CC[C@H](C1)NC(=O)CCOCC/C=C/2 [Example 223]	100 to 500 nM
< 5 nM	< 5 nM	1000 to 10000 nM	2.76 h				CC(=O)N1C[C@@H]2C[C@@H]1C(=O)NCCCCC/C=C/c1cnc(N)c3c(-c4ccc(C(=O)Nc5cc(C(F)(F)F)ccn5)cc4)nn2c13 [Example 226]	500 to 10000 nM
< 5 nM	< 5 nM	< 100 nM		>24 h	< 100 nM		COc1cc(-c2nn3c4c(cnc(N)c24)/C=C/COCCC(=O)N[C@@H]2CCC[C@@H]3C2)ccc1C(=O)Nc1cc(C(F)(F)F)ccn1 [Example 188]	< 100 nM
< 5 nM	< 5 nM	< 100 nM			< 100 nM		Nc1ncc2c3c1c(-c1ccc(C(=O)Nc4ccccn4)cc1)nn3[C@@H]1CCC[C@H](C1)NC(=O)CCCC/C=C/2 [Example 23]	100 to 500 nM
50 to 500 nM	5 to 50 nM	100 to 1000 nM			100 to 1000 nM		Nc1ncc2c3c1c(-c1ccc(C(=O)Nc4ccccn4)cc1)nn3[C@@H]1CCC[C@H](C1)NC(=O)COC/C=C\C2 [Example 104b]	500 to 10000 nM
< 5 nM	< 5 nM	100 to 1000 nM			< 100 nM		Nc1ncc2c3c1c(-c1ccc(C(=O)Nc4cc(C(F)(F)F)ccn4)cc1)nn3[C@@H]1CCCN(C1)C(=O)CCCCC/C=C/2 [Example 78]	500 to 10000 nM
5 to 50 nM	< 5 nM	100 to 1000 nM			< 100 nM		Nc1ncc2c3c1c(-c1ccc(C(=O)Nc4cc(C(F)(F)F)ccn4)cc1)nn3[C@@H]1CCC[C@H](C1)NC(=O)COC/C=C\C2 [Example 97b]	500 to 10000 nM
< 5 nM	< 5 nM				< 100 nM	1000 to 10000 nM	C[C@@H]1CC(=O)N[C@@H]2CC[C@H](C2)c2nc(-c3ccc(C(=O)Nc4cc(C#N)ccn4)cc3)c3c(N)ncc(n23)/C=C/CCN1 [Example 208]	500 to 10000 nM
< 5 nM	< 5 nM	100 to 1000 nM			< 100 nM		Nc1ncc2c3c1c(-c1ccc(C(=O)Nc4cc(C(F)(F)F)ccn4)cc1)nn3[C@@H]1CCC[C@H](C1)NC(=O)CCC[C@H](O)/C=C/2 [Example 13]	500 to 10000 nM
< 5 nM	< 5 nM	100 to 1000 nM			< 100 nM		Nc1ncc2c3c1c(-c1ccc(C(=O)Nc4cc(C(F)(F)F)ccn4)cc1)nn3[C@@H]1CCC[C@H](C1)NC(=O)CCCCC/C=C\C2 [Example 101b]	500 to 10000 nM
< 5 nM	< 5 nM	< 100 nM			< 100 nM		Nc1ncc2c3c1c(-c1ccc(C(=O)Nc4cc(C(F)(F)F)ccn4)cc1)nn3[C@@H]1CCCN(C1)C(=O)CCCCCCCC/C=C/2 [Example 81]	100 to 500 nM
5 to 50 nM	< 5 nM	100 to 1000 nM			< 100 nM		Nc1ncc2c3c1c(-c1ccc(C(=O)Nc4ccccn4)cc1)nn3[C@@H]1CCC[C@H](C1)NC(=O)CCCCC/C=C\C2 [Example 102b]	500 to 10000 nM
< 5 nM	< 5 nM	100 to 1000 nM			< 100 nM		C[C@@H]1CCn2nc(-c3ccc(C(=O)Nc4cc(C(F)(F)F)ccn4)cc3)c3c(N)ncc(c32)/C=C/CCN2CC[C@@H]2C(=O)N1 [Example 74]	500 to 10000 nM
< 5 nM	< 5 nM	1000 to 10000 nM			< 100 nM		CN1CCCCc2cnc(N)c3c(-c4ccc(C(=O)Nc5cc(C(F)(F)F)ccn5)cc4)nn(c23)[C@@H]2CCC[C@H](C2)C(=O)NCC1 [Example 140]	500 to 10000 nM
5 to 50 nM	5 to 50 nM	< 100 nM			< 100 nM		Nc1ncc2c3c1c(-c1ccc(C(=O)Nc4cc(C(F)(F)F)ccn4)cc1)nn3[C@@H]1CCC[C@H](C1)NC(=O)CCCC(F)(F)/C=C/2 [Example 138]	500 to 10000 nM
< 5 nM	< 5 nM	< 100 nM			< 100 nM		CC(=O)N1CCC/C=C/c2cnc(N)c3c(-c4ccc(C(=O)Nc5cc(C(F)(F)F)ccn5)cc4)nn(c23)[C@@H]2CCC[C@H](C2)NC(=O)C1 [Example 167]	100 to 500 nM
< 5 nM	< 5 nM	< 100 nM			< 100 nM		Nc1ncc2c3c1c(-c1ccc(C(=O)Nc4ccccn4)cc1)nn3[C@@H]1CCC[C@H](C1)NC(=O)CCCCCC/C=C/2 [Example 29]	100 to 500 nM
5 to 50 nM	50 to 500 nM	100 to 1000 nM			100 to 1000 nM		Nc1ncc2c3c1c(-c1ccc(C(=O)Nc4cc(C(F)(F)F)ccn4)cc1)nn3[C@@H]1CCC[C@H](C1)C(=O)NCC/C=C\C2 [Example 86]	500 to 10000 nM
5 to 50 nM	5 to 50 nM	100 to 1000 nM			100 to 1000 nM		Nc1ncc2c3c1c(-c1ccc(C(=O)Nc4cc(C(F)(F)F)ccn4)cc1)nn3[C@@H]1CCCN(C1)C(=O)CCCC/C=C/2 [Example 77]	500 to 10000 nM
< 5 nM	< 5 nM	100 to 1000 nM			< 100 nM		CC1CCn2nc(-c3ccc(C(=O)Nc4cc(C(F)(F)F)ccn4)cc3)c3c(N)ncc(c32)/C=C/C(O)CCCCC(=O)N1 (centres unmarked) [Example 75]	500 to 10000 nM
< 5 nM	< 5 nM	1000 to 10000 nM			< 100 nM		CC(=O)N1CC/C=C/c2cnc(N)c3c(-c4ccc(C(=O)Nc5cc(C(F)(F)F)ccn5)cc4)nn(c23)[C@@H]2CCC[C@H](C2)NC(=O)C[C@H]1C [Example 190]	500 to 10000 nM
< 5 nM	< 5 nM	< 100 nM			< 100 nM		C[C@H]1CC(=O)N[C@@H]2CCC[C@H](C2)n2nc(-c3ccc(C(=O)Nc4cc(C#N)ccn4)cc3)c3c(N)ncc(c32)/C=C/CCO1 [Example 161]	< 100 nM
< 5 nM	< 5 nM	< 100 nM			< 100 nM		CN1CCC/C=C/c2cnc(N)c3c(-c4ccc(C(=O)Nc5cc(C(F)(F)F)ccn5)cc4)nn(c23)[C@@H]2CCC[C@H](C2)NC(=O)C1 [Example 41]	< 100 nM
< 5 nM	< 5 nM	< 100 nM			< 100 nM		Nc1ncc2n3c(nc(-c4ccc(C(=O)Nc5cc(C(F)(F)F)ccn5)cc4)c13)[C@@H]1CCC[C@H](C1)NC(=O)CCOC/C=C/2 [Example 178]	100 to 500 nM
< 5 nM	< 5 nM	100 to 1000 nM			< 100 nM		COc1ccc(F)cc1C(=O)NCc1ccc(-c2nc3n4c(cnc(N)c24)/C=C/CCN[C@H](C)CC(=O)N[C@@H]2CC[C@@H]3C2)cc1 [Example 214]	500 to 10000 nM
